Data reported in patent US5053408A, “Hexitol derivatives having vasodilative activity” (Kyowa Hakko Kogyo Co., Ltd., priority 1989, dated 1991).
Where a name gives a salt, the structure may show the parent alone. Read-outs that look alike come from different tables or passages of the source.

How the values were obtained:
[1] = tested on: coronary vasospasm model (lysine-vasopressin); test: Effects on coronary vasospasm model (lysine-vasopressin test), inhibition of ST-segment elevation; type: in vivo, male Wistar rats; conditions: Rattus norvegicus
male dd-mice = test: Acute toxicity; conditions: mouse, in vivo, 10080 min; for MLD i.p.: ip; for MLD p.o.: po
Protocol: The compounds were orally administered and intraperitoneally administered to male dd-mice weighing 20 to 25 g. […] was determined by observing the mortality for seven days after the administration.

[2] = ip, 20 min before anesthetization, lysine-vasopressin 0.3 I.U./kg iv, MED = minimum dose with depression rate of 20% or higher, read-out: Coronary vasoconstriction model MED i.p.
[3] = po, 30 min before anesthetization, lysine-vasopressin 0.3 I.U./kg iv, MED = minimum dose with depression rate of 20% or higher, read-out: Coronary vasoconstriction model MED p.o.

Row | SMILES | minimal effective dose [1, 2] [mg/kg] | minimal effective dose [1, 3] [mg/kg] | MLD i.p. (male dd-mice) [mg/kg] | MLD p.o. (male dd-mice) [mg/kg] | minimal effective dose ([1]; ip, read-out: Coronary vasoconstriction model MED i.p.) [mg/kg] | minimal effective dose ([1]; po, read-out: Coronary vasoconstriction model MED p.o.) [mg/kg]
1 | O=[N+]([O-])O[C@H]1CO[C@H]2[C@@H]1OC[C@@H]2N1CCN(CCCSc2ccccc2)CC1 [Compound 1, 5-Deoxy-5-[4-(3-phenylthiopropyl)piperazin-1-yl]-1.4;3.6-dianhydro-L-iditol2-nitrate hydrochloride] | < 25 | < 30 | > 100 | > 150 |  | 
2 | O=[N+]([O-])O[C@H]1CO[C@H]2[C@@H]1OC[C@@H]2N1CCN(CCCSc2ccncc2)CC1 [Compound 12, 5-Deoxy-5-[4-[3-(pyridin-4-ylthio)propyl]piperazin-1-yl]-1.4;3.6-dianhydro-L-iditol 2-nitrate hydrochloride] |  | < 30 | > 100 | > 300 |  | 
3 | O=C(O)Cc1ccc(SCCCN2CCN([C@H]3CO[C@H]4[C@@H]3OC[C@@H]4O[N+](=O)[O-])CC2)cc1 [Compound 16, 5-[4-[3-(4-Carboxymethylphenylthio)propyl]piperazin-1-yl]-5-deoxy-1.4;3.6-dianhydro-L-iditol 2-nitrate] |  | < 30 | > 100 | > 300 |  | 
4 | O=[N+]([O-])O[C@H]1CO[C@H]2[C@@H]1OC[C@@H]2N1CCN(CCCn2ccnc2)CC1 [Compound 21, 5-Deoxy-5-[4-[3-(imidazol-1-yl)propyl]piperazin-1-yl]-1.4;3.6-dianhydro-L-iditol 2-nitrate hydrochloride] |  | < 30 | > 100 | > 300 |  | 
5 | O=[N+]([O-])O[C@H]1CO[C@H]2[C@@H]1OC[C@@H]2N1CCN(CCCn2cnc3ccccc32)CC1 [Compound 22, 5-[4-[3-(Benzimidazol-1-yl)propyl]piperazin-1-yl]-5-deoxy-1.4;3.6-dianhydro-L-iditol 2-nitrate hydrochloride] | < 25 | < 30 | > 100 | > 300 |  | 
6 | Cc1cc2ncn(CCCN3CCN([C@H]4CO[C@H]5[C@@H]4OC[C@@H]5O[N+](=O)[O-])CC3)c2cc1C [Compound 23, 5-Deoxy-5-[4-[3-(5,6-dimethylbenzimidazol-1-yl)propyl]-piperazin-1-yl]-1.4;3.6-dianhydro-L-iditol 2-nitrate hydrochloride] |  | < 30 | > 100 | > 300 |  | 
7 | O=[N+]([O-])O[C@H]1CO[C@H]2[C@@H]1OC[C@@H]2N1CCN(CCCn2ccc3ccccc32)CC1 [Compound 27, 5-Deoxy-5-[4-[3-(indol-1-yl)propyl]piperazin-1-yl]-1.4;3.6-dianhydro-L-iditol 2-nitrate hydrochloride] |  | < 30 | > 100 | > 300 |  | 
8 | O=[N+]([O-])O[C@H]1CO[C@H]2[C@@H]1OC[C@@H]2N1CCN(CCCn2cc3ccccc3n2)CC1 [Compound 31, 5-Deoxy-5-[4-[3-(indazol-2-yl)propyl]piperazin-1-yl]-1.4; 3.6-dianhydro-L-iditol 2-nitrate hydrochloride] | < 25 |  | > 100 | > 300 |  | 
9 | O=[N+]([O-])O[C@H]1CO[C@H]2[C@@H]1OC[C@@H]2N1CCN(CCc2nc3ccccc3[nH]2)CC1 [Compound 57, 5-[4-[2-(Benzimidazol-2-yl)ethyl]piperazin-1-yl]-5-deoxy-1.4;3.6-dianhydro-L-iditol 2-nitrate hydrochloride] | < 25 |  | > 100 | > 300 |  | 
10 | O=[N+]([O-])O[C@H]1CO[C@H]2[C@@H]1OC[C@@H]2N1CCN(c2nc3ccccc3s2)CC1 [Compound 58, 5-[4-(Benzothiazol-2-yl)piperazin-1-yl]-5-deoxy-1.4;3.6-dianhydro-L-iditol 2-nitrate hydrochloride] | < 25 |  | > 100 | > 300 |  | 
11 | O=[N+]([O-])O[C@H]1CO[C@H]2[C@@H]1OC[C@@H]2N1CCN(c2nnnn2-c2ccccc2)CC1 [Compound 60, 5-Deoxy-5-[4-(1-phenyl-1H-tetrazol-5-yl)piperazin-1-yl-]-1.4;3.6-dianhydro-L-iditol 2-nitrate hydrochloride] | < 25 |  | > 100 | > 300 |  | 
12 | O=[N+]([O-])O[C@H]1CO[C@H]2[C@@H]1OC[C@@H]2N1CCN(c2nc3ccccc3[nH]2)CC1 [Compound 76, 5-[4-(Benzimidazol-2-yl)piperazin-1-yl]-5-deoxy-1.4;3.6-dianhydro-L-iditol 2-nitrate hydrochloride] |  | < 30 | > 100 | > 300 |  | 
13 | COc1cc2nc(N3CCN([C@H]4CO[C@H]5[C@@H]4OC[C@@H]5O[N+](=O)[O-])CC3)nc(N)c2cc1OC [Compound 78, 5-[4-(4-Amino-6,7-dimethoxyquinazolin-2-yl)piperazin-1-yl]-5-deoxy-1.4;3.6-dianhydro-L-iditol 2-nitrate hydrochloride] |  | < 30 | > 100 | > 300 |  | 
14 | O=C(c1cccnc1)N1CCN([C@H]2CO[C@H]3[C@@H]2OC[C@@H]3O[N+](=O)[O-])CC1 [Compound 80] | < 25 | < 30 | > 100 | > 300 |  | 
15 | O=C(c1ccccn1)N1CCN([C@H]2CO[C@H]3[C@@H]2OC[C@@H]3O[N+](=O)[O-])CC1 [Compound 81, 5-Deoxy-5-[4-(pyridin-2-yl)carbonylpiperazin-1-yl]-1.4;3.6-dianhydro-L-iditol 2-nitrate hydrochloride] |  | < 30 | > 100 | > 300 |  | 
16 | O=C(c1ccco1)N1CCN([C@H]2CO[C@H]3[C@@H]2OC[C@@H]3O[N+](=O)[O-])CC1 [Compound 83, 5-Deoxy-5-[4-(furan-2-yl)carbonylpiperazin-1-yl]-1.4;3.6-dianhydro-L-iditol2-nitrate hydrochloride] |  | < 30 | > 100 | > 300 |  | 
17 | O=C(c1ccccc1)N1CCN([C@H]2CO[C@H]3[C@@H]2OC[C@@H]3O[N+](=O)[O-])CC1 [Compound 84, 5-(4-Benzoylpiperazin-1-yl)-5-deoxy-1.4;3.6-dianhydro-L-iditol 2-nitrate hydrochloride] | < 25 |  | > 100 | > 300 |  | 
18 | COc1ccc(C(=O)N2CCN([C@H]3CO[C@H]4[C@@H]3OC[C@@H]4O[N+](=O)[O-])CC2)c(OC)c1OC [Compound 87, 5-Deoxy-5-[4-(2,3,4-trimethoxybenzoyl)piperazin-1-yl]-1.4;3.6-dianhydro-L-iditol 2-nitratehydrochloride] |  | < 30 | > 100 | > 300 |  | 
19 | O=C(c1ccc(Cl)nc1)N1CCN([C@H]2CO[C@H]3[C@@H]2OC[C@@H]3O[N+](=O)[O-])CC1 [Compound 89, 5-[4-(6-Chloropyridin-3-yl)carbonylpiperazin-1-yl]-5-deoxy-1.4;3.6-dianhydro-L-iditol 2-nitrate hydrochloride] |  | < 30 | > 100 | > 300 |  | 
20 | Cc1ccc(C(=O)N2CCN([C@H]3CO[C@H]4[C@@H]3OC[C@@H]4O[N+](=O)[O-])CC2)cn1 [Compound 93, 5-Deoxy-5-[4-(6-methylpyridin-3-yl)carbonylpiperazin-1-yl]-1.4;3.6-dianhydro-L-iditol 2-nitrate hydrochloride] |  | < 30 | > 100 | > 300 |  | 
21 | O=[N+]([O-])O[C@@H]1CO[C@H]2[C@@H]1OC[C@@H]2N1CCN(CCCSc2ccccc2)CC1 [Compound 96, 2-Deoxy-2-[4-(3-phenylthiopropyl)piperazin-1-yl]-1.4;3.6-dianhydro-D-glucitol 5-nitrate hydrochloride] | < 25 |  | > 100 | > 300 |  | 
22 | O[C@H]1CO[C@H]2[C@@H]1OC[C@@H]2N1CCN(CCCOc2ccccc2)CC1 [Compound 102, 5-Deoxy-5-[4-(3-phenoxypropyl)piperazin-1-yl]-1.4;3.6-dianhydro-L-iditol hydrochloride] | < 25 | < 30 | > 100 | > 300 |  | 
23 | O=C(c1cccs1)N1CCN([C@H]2CO[C@H]3[C@@H]2OC[C@@H]3O[N+](=O)[O-])CC1 [Compound 111, 5-Deoxy-5-[4-(thiophen-2-yl)carbonylpiperazin-1-yl]-1.4;3.6-dianhydro-L-iditol 2-nitrate hydrochloride] |  | < 30 | > 100 | > 300 |  | 
24 | O=C(c1ccoc1)N1CCN([C@H]2CO[C@H]3[C@@H]2OC[C@@H]3O[N+](=O)[O-])CC1 [Compound 112, 5-Deoxy-5-[4-(furan-3-yl)carbonylpiperazin-1-yl]-1.4;3.6-dianhydro-L-iditol2-nitrate hydrochloride] |  | < 30 | > 100 | > 300 |  | 
25 | O=C(c1cccnc1)N1CCN([C@H]2CO[C@H]3[C@@H]2OC[C@@H]3O)CC1 [Compound 117, 5-Deoxy-5-[4-(pyridin-3-yl)carbonylpiperazin-1-yl]-1.4;3.6-dianhydro-L-iditol] |  |  |  |  | < 25 | < 30
26 | O=C(NCCO[N+](=O)[O-])c1cccnc1 [Nicorandil, reference compound] | < 30 |  |  |  |  | 
